From patent US7179800B2 (priority 2002, dated 2007)

What was measured:
Format in all cases: in vivo, mouse
Settings in all cases: Mus musculus, iv, mice, i.v.
Male ICR mice [1] = assay: Tail-flick antinociception (TF, % MPE) in mice
Procedure: (§1) Male ICR mice (25–32 g), obtained from Harlan (Dublin, Va.), were housed in groups of five. All animals were kept in a temperature-controlled (20–22° C.) environment with a 12-hour light-dark cycle (lights on at 7 a.m.). Separate mice were used for testing each drug dose in the in vivo behavioral procedures. Brain tissue for binding studies was obtained from male Sprague-Dawley rats (150–200 g) purchased from Harlan Laboratories (Dublin, Va.).
(§2) Measurement of spontaneous activity in mice occurred in standard activity chambers interfaced with a Digiscan Animal Activity Monitor (Omnitech Electronics, Inc., Columbus, Ohio). A standard tail-flick apparatus and a digital thermometer (Fisher Scientific, Pittsburgh, Pa.) were used to measure antinociception and rectal temperature, respectively
(§3) Resorcinols were synthesized in our labs (Organix, Inc., Woburn, Mass.) according to the procedure specified below and were suspended in a vehicle of absolute ethanol, Emulphor-620 (Rhone-Poulenc, Inc., Princeton, N.J.), and saline in a ratio of 1:1:18. Drugs were administered to the mice intravenously (i.v.) in the tail vein at a volume of 0.1 ml/10 g.
(§4) Prior to testing in the behavioral procedures, mice were acclimated to the experimental setting (ambient temperature 22–24° C.) overnight. Pre-injection control values were determined for rectal temperature and tail-flick latency (in sec). […] Tail-flick latency was measured at 20 min post-injection. Maximum latency of 10 sec was used. Antinociception was calculated as percent of maximum possible effect {% MPE=[(test−control latency)/(10-control)]×100}. Control latencies typically ranged from 1.5 to 4.0 sec. At 30 min post-injection, rectal temperature was measured This value was expressed as the difference between control temperature (before injection) and temperatures following drug administration (° C.). Different mice (n=5–6 per dose) were tested for each dose of each compound. Each mouse was tested in each of the 3 procedures.
(§5) Based on data obtained from numerous previous studies with cannabinoids, maximal cannabinoid effects in each procedure were estimated as follows: 90% inhibition of spontaneous activity, 100% MPE in the tail flick procedure, and −6° C. change in rectal temperature. ED50's were defined as the dose at which half maximal effect occurred. For drugs that produced one or more cannabinoid effect, ED50's were calculated separately using least-squares linear regression on the linear part of the dose-effect curve for each measure in the mouse tetrad, plotted against log10 transformation of the dose. For the purposes of potency comparison, potencies were expressed as μmol/kg.

Male ICR mice [2] = assay: Change in rectal temperature (RT) in mice
Procedure: as §1, §2, §3, §4, §5

Male ICR mice [3] = assay: Suppression of spontaneous activity (SA) in mice
Procedure: as §1, §2, §3, §4, §5

[4] = 95% confidence limits in parentheses, read-out: ED50 TF (antinociceptive effect in tail flick assay)
[5] = 95% confidence limits in parentheses, read-out: ED50 RT (rectal temperature)
[6] = 95% confidence limits in parentheses, read-out: ED50 SA (suppression of spontaneous activity)

Row | SMILES | ED50 (Male ICR mice [1]; Table 6, read-out: T.F. ED50) [mg/kg] | ED50 (Male ICR mice [1]; [4]) [µmol/kg] | ED50 (Male ICR mice [2]; Table 6, read-out: R.T. ED50) [mg/kg] | ED50 (Male ICR mice [2]; [5]) [µmol/kg] | ED50 (Male ICR mice [3]; Table 6, read-out: S.A ED50) [mg/kg] | ED50 (Male ICR mice [3]; [6]) [µmol/kg]
1 | CCCCCCC(C)(C)c1cc(O)c(C2CCC(C)CC2)c(O)c1 (stereo not drawn) [O-1659, 2-(4-Methylcyclohexyl)-5-(1′,1′-dimethylheptyl)-resorcinol] | 1.35 | 3.9 | 1.12 | 3.3 | 1.65 | 4.8
2 | CCCCCCC(C)(C)c1cc(O)c(C2CCSC2)c(O)c1 (stereo not drawn) [O-1661, 2-(Tetrahydrothiophen-3-yl)-5-(1′,1′-dimethylheptyl)-re-sorcinol] | 4.39 | 14 | 7.78 | 24 | 2.65 | 24
3 | CCCC(C)(C)c1cc(O)c(C2CCCC(C)C2)c(O)c1 (stereo not drawn) [O-1890, 2-(3-Methylcyclohexyl)-5-(1′,1′-dimethylbutyl)-resorcinol] | 14 | 48 | 21 | 72 | 20 | 69
4 | CCCCCCC(C)(C)c1cc(O)c(C2CCSCC2)c(O)c1 [O-1425] | 5.05 | 15 | 4.53 | 13 | 5.82 | 17
5 | CCCCCCC(C)(C)c1cc(O)c(C2CCCC(C)C2)c(O)c1 (mixture of isomers) [O-1657, 2-(3-Methylcyclohexyl)-5-(1′,1′-dimethylheptyl)-resorcinol] | 0.23 | 0.6 | 0.29 | 0.9 | 0.13 | 0.3
6 | CCCCCCC(C)(C)c1cc(O)c([C@H]2CCCC(C)C2)c(O)c1 (single isomer, unassigned) [O-1826] | 0.821 | 2.4 | 1.16 | 3.6 | 0.915 | 2.7
7 | CCCCCCC(C)(C)c1ccc(-c2cc(C)ccc2C(C)C)c(O)c1 [O-1376, 3-1′,1′-Dimethylheptyl-6-(2-isopropyl-5-methylphenyl)phenol] | 1.97 | 5.7 | 0.822 | 2.3 | 2.94 | 8.5
8 | CCCCCCC(C)(C)c1cc(O)c(C2CCCCC2)c(O)c1 [O-1422, Cyclohexyl-5-(1′,1′-dimethylheptyl)-resorcinol] | 0.241 | 0.6 | 0.194 | 0.6 | 0.379 | 0.1
9 | CCCCCCC(C)(C)c1cc(O)c(C2CCCCC2C)c(O)c1 (stereo not drawn) [O-1658, 2-(2-Methylcyclohexyl)-5-(1′,1′-dimethylheptyl)-resorcinol] | 0.09 | 0.3 | 0.12 | 0.3 | 0.06 | 0.2
10 | CCCCCCC(C)(C)c1cc(O)c(C2=CCCCC2)c(O)c1 [O-1423] | 2.86 | 9 | 2.94 | 9 | 3.92 | 12
11 | CCCCCCC(C)(C)c1cc(O)c(C2C3CC4CC(C3)CC2C4)c(O)c1 (stereo not drawn) [O-1660, 2-(2-Adamantyl)-5-(1′,1′-di-methylheptyl)-resorcinol] | 0.911 | 2.4 | 1.73 | 4.6 | 1.27 | 3.5
